Assay results: patent US7056938B1, “Method for scavenging radicals with urocanic acid, derivatives and analogues” (Academisch Ziekenhuis Bij De Univ., priority 1999, dated 2006)

Key:
[1] = photooxidation of UCA with hydrogen peroxide under UV irradiation (HPLC); type: physicochemical; details: for YIELD OF PHOTOOXIDATION PRODUCTS: sum of 8 major peaks; for PHOTOISOMERIZATION cis-UCA / PHOTOISOMERIZATION trans-UCA: trans-UCA starting material
Description: Trans-UCA and cis-UCA were separated from each other and from several UCA oxidation products on a 4.6×250 mm Alltima C18 and Luna C18 reversed-phase column (Alitech, Deerfield, Ill. and Phenomenex, Torrence, Calif., resp.) with a flow of 0.8 mL/min, delivered by P-3500 HPLC-pumps (Pharmacia, Uppsala, Sweden). Samples of 20 to 200 μL were injected by a Promis II autosampler (Spark Holland, Emmen, The Netherlands) and chromatographic data were recorded on an SP 4270 integrator (Spectra Physics, San Jose, Calif.). Peak area data from samples were only processed under identical HPLC circumstances. A UV-detector (Applied Biosystems, model 759A, Foster City, Calif.) was set for 226 nm detection. Isocratic elution was performed with 10 mM ammonium formate buffer, containing 0.2–0.8 mM tetrabutylammonium(TBA)formate and 1% acetonitrile (pH 7.2). Collected fractions were acidified with formic acid up to a final concentration of 100 mM and passed through C18 could phase extraction columns (J T Baker, Deventer, The Netherlands) in order to remove TBA.
A 1-cm quartz cuvette, filled with 1.4 mL sample, was placed in the parallel beam of a filtered 1000 W Xenon are lamp (Oriel, Stratford, Conn.). The samples were magnetically stirred during irradiation. To minimize infrared (heat) and visible radiation, the beam was passed through a water filter (7 cm), reflected by a dichroic mirror and filtered through a 1=mm UG11 filter. Short wave cut off was achieved by passing the beam through WG280, WG305 or WG335 filters with 3 mm thickness each (Schott-Jena, Mainz, Germany). Xenon lamp emission filtered through WG280 included UV-C, UV-B and UV-A; through WG305 UV-B and UV-A and through WG335 only UV-A was included. Two narrow bands in the UV-B and UV-A spectral regions were selected to monitor the xenon-arc emission. The probe of a calibrated EG&G 550 radiometer (Salem, Mass., USA) was equipped with a neutral density filter and narrow band filter type UV-M-IL (Schott-Jena) with a transmission maximum of 21% at 303 nm and a half-width of 11.5 nm to monitor UV-B or with a type UV-PIL (Schott-Jena) with a transmission maximum of 46% at 363 nm and a half-width of 7.7 nm to monitor UV-A. Transmission spectra of the optical filters were checked on a Perkin Elmer Lambda 40 UV/VIS spectrometer (Norwalk, Conn., USA).
Additional irradiations were performed with fluorescent tubes TLI2, used as a UV-B source, and TL10R, used as a UV-A source (Philips, Eindhoven, The Netherlands), on samples that were magnetically stirred in small Petri dishes. The UV-B output was measured with an IL 443 phototherapy radiometer, fitted with a SEE 1240 silicon detector probe and the UV-A output with an IL 442A phototherapy radiometer with a SEE 115 detector probe (International Light, Newburyport, Mass., USA).
The O—O bond of hydrogen peroxide can be cleaved by UV radiation to yield hydroxyl radicals. Because both UCA isomers could effectively scavenge hydroxyl radicals, it is to be expected that UCA will be degraded and/or converted into oxidation products. The ability of simulated solar UV radiation to convert trans-UCA in the presence of hydrogen peroxide into photooxidation products was tested in vitro and analyzed by reversed-phase HPLC analysis. Hydrogen peroxide eluted close to void volume and trans-UCA and cis-UCA eluted with markedly different elution times of 20 and 64 min (FIGS. 3a–d). […] Exposing 80 μM trans-UCA in the absence of hydrogen peroxide at pH 7.2 to WG280-filtered xenon-arc emission (including UV-C and UV-B) resulted only and in the formation of cis-UCA via the process of photoisomerization (FIG. 3b). […] main photooxidation products were recognized as new peaks based on retention times and were assigned in the chromatogram (FIG. 3c).
In contrast, when exposures were performed with simulated solar radiation from which both UV-C and UV-B were blocked out by a WG335 filter, virtually no photo-oxidation products were found (FIG. 3d). […]

[2] = hydroxyl-radical-generating systems with copper ions (Cu2+); type: physicochemical
Description: UCA isomers (10 or 40 μM) were oxidized with a hydroxyl-radical-generating system that consisted of various concentrations of ferrous ions (10–500 μM) and a fixed hydrogen peroxide concentration of 500 μM (the Fenton reagent), either in a sodium phosphate (10 or 20 mM) medium of pH 7.2, or in ultrapure water. In addition, two hydroxyl-radical-generating systems with copper ions (Cu^2+) were used, consisting of 50 μM Cu^2+ with either 500 μM hydrogen peroxide or 5 mM ascorbic acid.
Evaluation of the data was difficult with the ascorbate system, because several interfering peaks had occurred in the chromatograms, which were probably derived from ascorbic acid and its oxidation products.
When another hydroxyl-radical-generating system, based on copper ions (Cu^2+) was investigated, the combination of Cu^2+/ascorbic acid/hydrogen peroxide caused a large breakdown or trans-UCA (Table 3) and a moderate yield of UCA oxidation products, in favor of ImCOOH. […] For the situation in vivo, one must remember that the epidermal copper content is lower than iron (29).

[3] = TL10R unfiltered, 320–440 nm, UV-B 0, UV-A 324
[4] = TL12 unfiltered, 280–366 nm, UV-B 3.6, UV-A 4.5
[5] = Xe arc W3305, 292–400 nm, UV-B 18, UV-A 70
[6] = Xe arc W3335, 320–400 nm, UV-B 0, UV-A 66
[7] = Xe arc W3280, 270–400 nm, UV-B 37, UV-A 70

SMILES: O=C(O)/C=C/c1cnc[nH]1 [trans-Urocanic acid, Trans-urocanic acid]
- YIELD OF PHOTOOXIDATION PRODUCTS [1, 3]: 16 (±5) A.U.
- YIELD OF PHOTOOXIDATION PRODUCTS [1, 4]: 149 (±51) A.U.
- YIELD OF PHOTOOXIDATION PRODUCTS [1, 5]: 239 (±14) A.U.
- YIELD OF PHOTOOXIDATION PRODUCTS [1, 6]: 45 (±8) A.U.
- lowering of initial weight after severe photooxidation ([1]; extensive UCA breakdown (<4% of each UCA isomer left over)): ~14%
- UCA LEFT OVER ([1]; trans-UCA 40 μM, hydrogen peroxide 500 μM, TL10R unfiltered, 320–440 nm, UV-B 0, UV-A 324 kJ · M^−1): 99 (±3) %
- UCA LEFT OVER ([1]; trans-UCA 40 μM, hydrogen peroxide 500 μM, TL12 unfiltered, 280–366 nm, UV-B 3.6, UV-A 4.5 kJ · M^−1): 90 (±20) %
- UCA LEFT OVER ([1]; trans-UCA 40 μM, hydrogen peroxide 500 μM, Xe arc W3280, 270–400 nm, UV-C,-B,-A included, UV-B 37, UV-A 70 kJ · M^−1): 43 (±11) %
- YIELD OF PHOTOOXIDATION PRODUCTS ([1]; trans-UCA 40 μM, hydrogen peroxide 500 μM, Xe arc W3280, 270–400 nm, UV-B 37, UV-A 70): 347 (±58) A.U.
- UCA LEFT OVER ([1]; trans-UCA 40 μM, hydrogen peroxide 500 μM, Xe arc W3305, 292–400 nm, UV-B,-A included, UV-B 18, UV-A 70 kJ · M^−1): 64 (±6) %
- UCA LEFT OVER ([1]; trans-UCA 40 μM, hydrogen peroxide 500 μM, Xe arc W3335, 320–400 nm, only UV-A included, UV-B 0, UV-A 66 kJ · M^−1): 95 (±5) %
- PHOTOISOMERIZATION cis-UCA [1, 3]: 16%
- PHOTOISOMERIZATION trans-UCA [1, 3]: 84 (±7) %
- PHOTOISOMERIZATION cis-UCA [1, 4]: 59%
- PHOTOISOMERIZATION trans-UCA [1, 4]: 41 (±4) %
- PHOTOISOMERIZATION cis-UCA [1, 7]: 59%
- PHOTOISOMERIZATION trans-UCA [1, 7]: 43 (±2) %
- PHOTOISOMERIZATION cis-UCA [1, 5]: 53%
- PHOTOISOMERIZATION trans-UCA [1, 5]: 47 (±3) %
- PHOTOISOMERIZATION cis-UCA [1, 6]: 40%
- PHOTOISOMERIZATION trans-UCA [1, 6]: 60 (±2) %
- trans-UCA left ([2]; Cu2+ (50 μM) and ascorbic acid (5 mM) without hydrogen peroxide): 3%
- trans-UCA left ([2]; Cu2+ (50 μM) and hydrogen peroxide (500 μM), without ascorbic acid): 88%
